For one test, the target named is T1, HDAC3 (Homo sapiens, UniProt O15379).
T1 construct: endogenous in cells; host or cells: HCT116
Nature of the test: HDAC3 degradation in HCT116 cells, quantitative western blot. Format: cell-based. As to conditions: HCT-116, 24 h; HCT116, screened at 0.1, 1 and 10 μM; maximum degradation irrespective of concentration; read-out: HDAC 3 degrader (% Degradation). Here is the method:
(§1) The compounds were screened at 0.1 μM, 1 μM and 10 μM in a HCT116 cell line. The maximum degradation observed irrespective of the concertation was recorded. The screening of the new compounds was done in 6-well plates, 5 mL media, with 400,000 cells per well to increase throughput.
(§2) HCT116 or mES cells were treated 24 hours after seeding. 24 hours post treatment, cells were harvested, lysed in lysis buffer (50 mM Tris-HCl, 150 mM NaCl, 0.5% NP-40, 0.5% Triton X-100) with protease inhibitor (Sigma, P8340), then incubated on ice for 30 minutes, before being centrifuged (18,000 ref, 15 minutes, 4° C.). The supernatant was collected, and protein concentrations quantified via Bradford Assay using Protein Assay Dye Reagent Concentrate (BIO-RAD). For histone extraction, an equal volume of 0.4 N H2SO4 was added to the pellets and the extracts placed at 4° C. overnight. Following overnight incubation, the tubes were centrifuged (18,000 ref, 15 minutes, 4° C.) and then the supernatant (histone extract) collected.
(§3) PageRuler™ Plus Prestained Ladder was used for size standards. After gel electrophoresis at 140V for 75-90 minutes the separated proteins were transferred onto nitrocellulose membrane at 30V for 60 minutes. The membranes were probed with primary antibodies (listed below) for 60-90 minutes. Blots were developed with complimentary IRDye conjugated secondary antibodies and the bands visualised using the Odyssey Infrared Imaging System. Image processing and band intensity quantification was performed using Image Studio Lite.

A further test has as its target T2, HDAC1 (Homo sapiens, UniProt Q13547).
T2 construct: endogenous in cells; host or cells: HCT116
Nature of the test: HDAC1 degradation in HCT116 cells, quantitative western blot. Format: cell-based. The note with it: for Dmax: HCT-116, 24 h, HCT116, screened at 0.1, 1 and 10 μM, maximum degradation irrespective of concentration, read-out: HDAC1 Degrader (% Degradation). Here is the method: as §1, §2, §3

For a further test, the target named is T3, HDAC2 (Homo sapiens, UniProt Q92769).
T3 construct: endogenous in cells; host or cells: HCT116
T3 sequence (Q92769 whole entry): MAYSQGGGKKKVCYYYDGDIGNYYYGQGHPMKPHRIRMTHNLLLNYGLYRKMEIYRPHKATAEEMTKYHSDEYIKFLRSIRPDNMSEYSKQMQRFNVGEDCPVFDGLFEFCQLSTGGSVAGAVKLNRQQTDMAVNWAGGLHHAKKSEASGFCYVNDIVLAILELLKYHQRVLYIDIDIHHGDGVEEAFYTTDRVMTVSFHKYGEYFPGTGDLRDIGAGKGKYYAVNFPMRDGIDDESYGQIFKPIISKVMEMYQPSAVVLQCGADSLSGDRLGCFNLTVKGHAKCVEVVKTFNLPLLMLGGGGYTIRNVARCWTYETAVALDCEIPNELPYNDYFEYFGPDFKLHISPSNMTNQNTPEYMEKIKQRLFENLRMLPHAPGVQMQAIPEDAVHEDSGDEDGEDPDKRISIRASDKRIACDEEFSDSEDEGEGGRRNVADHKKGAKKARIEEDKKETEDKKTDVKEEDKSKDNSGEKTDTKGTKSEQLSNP
Nature of the test: HDAC2 degradation in HCT116 cells, quantitative western blot. Format: cell-based. As to conditions: for Dmax: HCT-116, 24 h, read-out: HDAC 2 Degrader (% Degradation); for Dmax / HDAC 2 Degrader (% Degradation): HCT116, screened at 0.1, 1 and 10 μM, maximum degradation irrespective of concentration. Here is the method: as §1, §2, §3

In a further test the target is NuRD (Homo sapiens, UniProt Q13547). Nature of the test: HDAC inhibition assay, NuRD complex (Table 1). The test is classed as biochemical.
Chain of NuRD (Q13547 whole entry): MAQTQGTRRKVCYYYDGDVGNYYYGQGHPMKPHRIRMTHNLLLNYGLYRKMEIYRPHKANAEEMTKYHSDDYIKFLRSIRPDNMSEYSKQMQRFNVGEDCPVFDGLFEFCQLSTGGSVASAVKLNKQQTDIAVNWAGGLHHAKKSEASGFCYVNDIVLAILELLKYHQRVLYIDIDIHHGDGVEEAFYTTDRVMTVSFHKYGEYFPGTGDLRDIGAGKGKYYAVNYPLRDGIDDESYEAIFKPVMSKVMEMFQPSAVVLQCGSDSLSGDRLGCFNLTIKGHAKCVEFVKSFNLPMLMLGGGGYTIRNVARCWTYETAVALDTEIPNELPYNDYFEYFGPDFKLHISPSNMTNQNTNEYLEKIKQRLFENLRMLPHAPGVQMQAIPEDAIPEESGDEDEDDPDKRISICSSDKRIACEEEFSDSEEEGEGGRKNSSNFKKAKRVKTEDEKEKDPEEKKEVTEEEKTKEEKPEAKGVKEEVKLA
Chain of NuRD (Q13330 162-546 partner limits assumed): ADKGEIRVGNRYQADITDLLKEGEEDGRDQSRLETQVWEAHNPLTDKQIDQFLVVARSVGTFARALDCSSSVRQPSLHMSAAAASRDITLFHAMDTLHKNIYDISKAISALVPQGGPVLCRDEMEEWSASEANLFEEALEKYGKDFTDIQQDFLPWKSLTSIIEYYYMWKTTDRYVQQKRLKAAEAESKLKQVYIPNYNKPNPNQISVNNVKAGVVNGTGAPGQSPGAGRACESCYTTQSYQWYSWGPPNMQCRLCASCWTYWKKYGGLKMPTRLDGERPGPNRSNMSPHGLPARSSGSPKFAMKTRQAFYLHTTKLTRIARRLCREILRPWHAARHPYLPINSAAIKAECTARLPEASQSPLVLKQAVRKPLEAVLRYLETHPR
Chain of NuRD (Q09028 whole entry partner): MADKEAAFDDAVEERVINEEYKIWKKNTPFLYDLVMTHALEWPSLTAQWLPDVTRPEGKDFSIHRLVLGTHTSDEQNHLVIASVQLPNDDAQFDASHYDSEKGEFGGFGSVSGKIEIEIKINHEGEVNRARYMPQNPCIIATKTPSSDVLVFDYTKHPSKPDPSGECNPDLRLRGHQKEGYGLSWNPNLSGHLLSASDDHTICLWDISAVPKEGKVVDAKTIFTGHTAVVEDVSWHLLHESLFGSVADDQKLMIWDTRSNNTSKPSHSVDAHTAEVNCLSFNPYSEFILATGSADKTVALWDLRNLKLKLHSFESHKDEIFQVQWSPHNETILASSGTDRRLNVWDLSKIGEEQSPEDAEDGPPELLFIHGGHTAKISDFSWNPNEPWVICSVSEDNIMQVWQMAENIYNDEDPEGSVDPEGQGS
The next test has as its target MiDAC (Homo sapiens, UniProt Q13547). Nature of the test: HDAC inhibition assay, MiDAC complex (Table 1). Format: biochemical.
In the next test the target is CoREST (Homo sapiens, UniProt Q13547). Nature of the test: HDAC inhibition assay, CoREST complex (Table 1, run under different conditions). The test is classed as biochemical. As to conditions: Table 1 conditions (differ from FIG. 3). The procedure: Inhibition tests against LSD1-HDAC-CoREST complex were performed using a two-enzyme fluorescence-based HDAC assay. The inhibitor/PROTACs were dissolved at 50 mM in DMSO, then 1:2 serial dilutions performed using HDAC assay buffer (50 mM Tris pH 7.5, 150 mM NaCl) to afford range of concentrations.
Chain of CoREST (Q13547 whole entry, other chains not shown): as the sequence (Q13547 whole entry) above
Chain of CoREST (Q9UKL0 86-485 partner limits assumed, other chains not shown): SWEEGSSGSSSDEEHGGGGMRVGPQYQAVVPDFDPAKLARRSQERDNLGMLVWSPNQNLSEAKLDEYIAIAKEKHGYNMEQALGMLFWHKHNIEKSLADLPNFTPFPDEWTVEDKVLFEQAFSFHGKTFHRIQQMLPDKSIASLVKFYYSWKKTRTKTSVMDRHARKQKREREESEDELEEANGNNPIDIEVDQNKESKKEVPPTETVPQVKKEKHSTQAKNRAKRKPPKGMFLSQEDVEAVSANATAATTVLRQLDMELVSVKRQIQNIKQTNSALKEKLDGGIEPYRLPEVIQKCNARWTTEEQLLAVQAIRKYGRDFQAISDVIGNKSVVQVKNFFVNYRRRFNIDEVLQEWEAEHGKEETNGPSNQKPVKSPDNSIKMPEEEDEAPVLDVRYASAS
The assays were performed in black 96-well plates with a reaction volume of 50 μL per well. All determinations were performed in triplicate. […] After an incubation of 20 minutes at 37° C. and 150 rpm, deacetylation was stopped by the addition of 50 μL of a developing solution containing trypsin (50 mM Tris pH 7.5, 100 mM NaCl, 10 mg/mL trypsin). […] HDAC Activity was calculated by subtracting the average blank fluorescence from the well fluorescence. Graphpad Prism software was utilised to determine IC50 values.

[1] abbreviates: HCT116, side by side with PROTAC 4, FIG. 4C.

11 compounds from US20230120211A1, “HDAC Degrader” (University of Leicester, priority 2020, published 2023) can be followed below.

Each structure is given as a SMILES string.

T2 sequence (Q13547 whole entry): as the sequence (Q13547 whole entry) above
T1 sequence (O15379 whole entry): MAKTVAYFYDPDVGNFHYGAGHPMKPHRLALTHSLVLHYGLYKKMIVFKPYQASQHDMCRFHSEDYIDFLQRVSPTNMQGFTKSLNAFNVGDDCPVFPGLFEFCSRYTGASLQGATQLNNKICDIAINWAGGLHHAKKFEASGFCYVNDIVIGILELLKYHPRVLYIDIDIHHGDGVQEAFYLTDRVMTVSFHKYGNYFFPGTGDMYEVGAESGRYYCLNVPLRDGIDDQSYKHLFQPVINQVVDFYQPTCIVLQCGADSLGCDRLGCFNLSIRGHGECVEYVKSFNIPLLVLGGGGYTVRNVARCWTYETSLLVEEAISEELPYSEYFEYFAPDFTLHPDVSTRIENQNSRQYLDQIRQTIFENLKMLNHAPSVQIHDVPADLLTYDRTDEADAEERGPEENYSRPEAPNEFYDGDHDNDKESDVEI
Chain of MiDAC (Q13547 whole entry): as the sequence (Q13547 whole entry) above
Chain of MiDAC (Q6PJG2 628-887 partner limits assumed): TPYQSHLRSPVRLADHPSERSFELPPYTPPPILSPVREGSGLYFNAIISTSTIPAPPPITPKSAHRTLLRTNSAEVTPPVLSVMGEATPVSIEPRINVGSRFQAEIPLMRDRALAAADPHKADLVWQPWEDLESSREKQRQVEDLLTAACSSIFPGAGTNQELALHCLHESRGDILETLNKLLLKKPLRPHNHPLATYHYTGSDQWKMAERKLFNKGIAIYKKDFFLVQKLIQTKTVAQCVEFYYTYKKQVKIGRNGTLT
Chain of MiDAC (Q9H147 whole entry partner): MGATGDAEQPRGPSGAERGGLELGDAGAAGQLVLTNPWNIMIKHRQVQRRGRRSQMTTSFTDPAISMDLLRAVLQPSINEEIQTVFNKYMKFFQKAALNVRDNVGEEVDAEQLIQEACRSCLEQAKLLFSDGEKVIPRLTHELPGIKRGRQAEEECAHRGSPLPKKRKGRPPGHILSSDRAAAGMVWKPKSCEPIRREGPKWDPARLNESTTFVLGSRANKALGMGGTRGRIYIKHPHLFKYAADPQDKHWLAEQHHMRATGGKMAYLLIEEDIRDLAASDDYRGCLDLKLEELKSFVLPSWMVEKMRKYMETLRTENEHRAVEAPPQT

In the case of `CN[C@@H](C)C(=O)N[C@H](C(=O)N1CCC[C@H]1c1nc(C(=O)c2cccc(OCCCCCCCCCCCC(=O)Nc3ccc(C(=O)Nc4ccccc4N)cc3)c2)cs1)C1CCCCC1` [PROTAC37, N-(2-aminophenyl)-4-(12-(3-(2-((S)-1-((S)-2-cyclohexyl-2-((S)-2-(methylamino)propanamido)acetyl)pyrrolidin-2-yl)thiazole-4-carbonyl)phenoxy)dodecanamido)benzamide], the Dmax was found to be 37% on HDAC3, 38% on HDAC1 and 16% at HDAC2.

Consider `Cc1ncsc1-c1ccc(CNC(=O)[C@@H]2C[C@@H](O)CN2C(=O)[C@@H](NC(=O)CCCCCCCCCCCCC(=O)Nc2ccc(C(=O)Nc3ccccc3N)cc2)C(C)(C)C)cc1` [PROTAC34, N1-(4-((2-aminophenyl)carbamoyl)phenyl)-N14-((S)-1-((2S,4R)-4-hydroxy-2-((4-(4-methylthiazol-5-yl)benzyl)carbamoyl)pyrrolidin-1-yl)-3,3-dimethyl-1-oxobutan-2-yl)tetradecanediamide], for which the Dmax on HDAC3 was 30%; at HDAC1, 47%; on HDAC2, 44%.

For `CC(=O)N[C@H](C(=O)N1C[C@H](O)C[C@H]1C(=O)NCc1ccc(-c2scnc2C)cc1OCCCCCCCCCCCC(=O)Nc1ccc(C(=O)Nc2ccccc2N)cc1)C(C)(C)C` [PROTAC35, (2S,4R)-1-((S)-2-acetamido-3,3-dimethylbutanoyl)-N-(2-((12-((4-((2-aminophenyl)carbamoyl)phenyl)amino)-12-oxododecyl)oxy)-4-(4-methylthiazol-5-yl)benzyl)-4-hydroxypyrrolidine-2-carboxamide], the Dmax was 38% on HDAC3, 61% at HDAC1 and 49% on HDAC2.

`Cc1ncsc1-c1ccc(CNC(=O)[C@@H]2C[C@@H](O)CN2C(=O)[C@@H](NC(=O)CCCCCCCC(=O)Nc2ccc(C(=O)Nc3ccccc3N)cc2)C(C)(C)C)cc1` [PROTAC6, N1-(4-((2-aminophenyl)carbamoyl)phenyl)-N9-((S)-1-((2S,4R)-4-hydroxy-2-((4-(4-methylthiazol-5-yl)benzyl)carbamoyl)pyrrolidin-1-yl)-3,3-dimethyl-1-oxobutan-2-yl)nonanediamide]: the IC50 against NuRD was determined as 0.338 µM; at MiDAC, 1.69 µM; against CoREST, 0.244 µM. Moreover, at HDAC1, the Dmax came to 60%. Further, at HDAC2, the “HDAC 2 Degrader (% Degradation)” value is “partial”.

Turning to `Cc1ncsc1-c1ccc(CNC(=O)[C@@H]2C[C@@H](O)CN2C(=O)[C@@H](NC(=O)COCCCCCCOCC(=O)Nc2ccc(C(=O)Nc3ccccc3N)cc2)C(C)(C)C)cc1` [PROTAC12, (2S,4R)-1-((S)-2-(2-((6-(2-((4-((2-aminophenyl)carbamoyl)phenyl)amino)-2-oxoethoxy)hexyl)oxy)acetamido)-3,3-dimethylbutanoyl)-4-hydroxy-N-(4-(4-methylthiazol-5-yl)benzyl)pyrrolidine-2-carboxamide], the IC50 was 8.13 µM on NuRD, 5.15 µM against MiDAC and 7.17 µM at CoREST. The Dmax on HDAC3 came to 32%; at HDAC1, 42%; on HDAC2, 46%.

Consider `Cc1ncsc1-c1ccc(CNC(=O)[C@@H]2C[C@@H](O)CN2C(=O)[C@@H](NC(=O)C2(F)CC2)C(C)(C)C)c(OCCCCCCCCCCCC(=O)Nc2ccc(C(=O)Nc3ccccc3N)cc2)c1` [PROTAC36, (2S,4R)-N-(2-((12-((4-((2-aminophenyl)carbamoyl)phenyl)amino)-12-oxododecyl)oxy)-4-(4-methylthiazol-5-yl)benzyl)-1-((S)-2-(1-fluorocyclopropane-1-carboxamido)-3,3-dimethylbutanoyl)-4-hydroxypyrrolidine-2-carboxamide], for which the Dmax on HDAC3 came to 69%; at HDAC1, 51%; at HDAC2, 28%.

As to `Cc1ncsc1-c1ccc(CNC(=O)[C@@H]2C[C@@H](O)CN2C(=O)[C@@H](NC(=O)COCCCCCCCCCOCC(=O)Nc2ccc(C(=O)Nc3ccccc3N)cc2)C(C)(C)C)cc1` [PROTAC16, (2S,4R)-1-((S)-2-(2-((9-(2-((4-((2-aminophenyl)carbamoyl)phenyl)amino)-2-oxoethoxy)nonyl)oxy)acetamido)-3,3-dimethylbutanoyl)-4-hydroxy-N-(4-(4-methylthiazol-5-yl)benzyl)pyrrolidine-2-carboxamide], the IC50 came to 11.8 µM against NuRD and 4.13 µM at CoREST. Further, the Dmax at HDAC3 came to 67%; on HDAC1, 67%; on HDAC2, 58%.

For the compound `Cc1ncsc1-c1ccc(CNC(=O)[C@@H]2C[C@@H](O)CN2C(=O)[C@@H](NC(=O)COCCOCCOCC(=O)Nc2ccc(C(=O)Nc3cc(-c4cccs4)ccc3N)cc2)C(C)(C)C)cc1` [PROTAC22, (2S,4R)-1-((S)-14-((4-((2-amino-5-(thiophen-2-yl)phenyl)carbamoyl)phenyl)amino)-2-(tert-butyl)-4,14-dioxo-6,9,12-trioxa-3-azatetradecanoyl)-4-hydroxy-N-(4-(4-methylthiazol-5-yl)benzyl)pyrrolidine-2-carboxamide], the Dmax at HDAC3 and on HDAC1 was 32% each time. Moreover, the “HDAC 2 Degrader (% Degradation)” value on HDAC2 is “No”.

`Cc1ncsc1-c1ccc(CNC(=O)[C@@H]2C[C@@H](O)CN2C(=O)[C@@H](NC(=O)CCCCCCCn2cc(COC(=O)NCc3ccc(C(=O)Nc4ccccc4N)cc3)nn2)C(C)(C)C)cc1` [PROTAC29, (1-(8-(((S)-1-((2S,4R)-4-hydroxy-2-((4-(4-methylthiazol-5-yl)benzyl)carbamoyl)pyrrolidin-1-yl)-3,3-dimethyl-1-oxobutan-2-yl)amino)-8-oxooctyl)-1H-1,2,3-triazol-4-yl)methyl(4-((2-aminophenyl)carbamoyl)benzyl)carbamate]: the results for the Dmax on HDAC3, at HDAC1 and at HDAC2 were 64%, 39% and 23%, respectively.

On to `CN[C@@H](C)C(=O)N[C@H](C(=O)N1C[C@@H](NC(=O)CCCCCCCCCCC(=O)Nc2ccc(C(=O)Nc3ccccc3N)cc2)C[C@H]1C(=O)N[C@@H]1CCCc2ccccc21)C1CCCCC1` [PROTAC26, N^1-(4-((2-aminophenyl)carbamoyl)phenyl)-N^12-((3S,5S)-1-((S)-2-cyclohexyl-2-((S)-2-(methylamino)propanamido)acetyl)-5-(((R)-1,2,3,4-tetrahydronaphthalen-1-yl)carbamoyl)pyrrolidin-3-yl) dodecanediamide], for which the Dmax at HDAC3 amounted to 88%; on HDAC1 it was 88%; at HDAC2, 58%.

Turning to `Cc1ncsc1-c1ccc(CNC(=O)[C@@H]2C[C@H](O)CN2C(=O)[C@@H](NC(=O)CCCCCCCCCCC(=O)Nc2ccc(C(=O)Nc3ccccc3N)cc2)C(C)(C)C)cc1` [NC-PROTAC4, N1-(4-((2-aminophenyl)carbamoyl)phenyl)-N12-((S)-1-((2S,4S)-4-hydroxy-2-((4-(4-methylthiazol-5-yl)benzyl)carbamoyl)pyrrolidin-1-yl)-3,3-dimethyl-1-oxobutan-2-yl)dodecanediamide], on HDAC1 (setting [1]), the HDAC1 degradation result is listed as “No degradation”. Moreover, at HDAC2 (setting [1]), the HDAC2 degradation result is “No degradation”.
